Results from US10676467B2 (Washington University, priority 2017, dated 2020).
Counter-ions that a name gives are not always drawn.

What follows are molecules tested against recombinant human S1P1 (Homo sapiens (Human), UniProt P21453) (assay: [32P]S1P competitive binding assay on cell membranes). Details: competition against [32P]S1P, membranes with recombinant human S1P1, mean ± SD; listed as TZ-43-77; read-out: S1P1 IC50 ± SD.
Sequence of recombinant human S1P1 (P21453 whole entry): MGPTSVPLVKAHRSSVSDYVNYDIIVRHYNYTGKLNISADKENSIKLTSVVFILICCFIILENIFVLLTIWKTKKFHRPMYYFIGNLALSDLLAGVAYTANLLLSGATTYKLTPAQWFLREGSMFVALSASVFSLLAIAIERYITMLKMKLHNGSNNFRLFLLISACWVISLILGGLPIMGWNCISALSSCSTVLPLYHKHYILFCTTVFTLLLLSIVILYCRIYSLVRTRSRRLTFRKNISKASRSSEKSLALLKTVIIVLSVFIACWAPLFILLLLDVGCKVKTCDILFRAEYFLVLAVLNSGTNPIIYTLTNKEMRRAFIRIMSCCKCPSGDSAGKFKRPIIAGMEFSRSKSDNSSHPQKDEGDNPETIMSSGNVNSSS
Method: Competitive binding was performed for 60 min at room temperature and terminated by collecting the membranes onto 96-well glass fiber (GF/B) filtration plates (Millipore, Billerica, Mass.). Each filter was washed with 200 μL of assay buffer for five times. The filter bound radionuclide was measured by a Beckman LS3801 scintillation counter using Cherenkov counting. The reported IC50 values were calculated using the 4 parameter equation, least-square non-linear regression curve-fit, with GraphPad Prism software (GraphPad Software, Inc). Each assay was repeated at least three times with duplicate wells for each compound; the reported values (mean±SD, nM) are calculated from the average of all assays.

IC50 [µM]	Structure (SMILES)
0.067 ± 0.0126	NC(=O)c1ccc(-c2noc(-c3ccc(OCCF)c(C(F)(F)F)c3)n2)cc1 [Compound 19b, 4-(5-(4-(2-Fluoroethoxy)-3-(trifluoromethyl)phenyl)-1,2,4-oxadiazol-3-yl)benzamide]

Same assay, conditions: competition against [32P]S1P, membranes with recombinant human S1P1, mean ± SD; listed as TZ-43-102; read-out: S1P1 IC50 ± SD

IC50 [µM]	Structure (SMILES)
0.04 ± 0.0178	CS(=O)(=O)NCc1ccc(-c2noc(-c3ccc(OCCF)c(C(F)(F)F)c3)n2)cc1 [Compound 19c, N-(4-(5-(4-(2-Fluoroethoxy)-3-(trifluoromethyl)phenyl)-1,2,4-oxadiazol-3-yl)benzyl)methanesulfonamide]

Same assay, conditions: competition against [32P]S1P, membranes with recombinant human S1P1, mean ± SD; listed as TZ-48-16; read-out: S1P1 IC50 ± SD

IC50 [µM]	Structure (SMILES)
0.125 ± 0.027	OCC1CN(Cc2ccc(-c3noc(-c4ccc(OCCF)c(C(F)(F)F)c4)n3)cc2)C1 [Compound 10b]

Same assay, conditions: competition against [32P]S1P, membranes with recombinant human S1P1, mean ± SD; read-out: S1P1 IC50 ± SD

IC50 [µM]	Structure (SMILES)
0.182 ± 0.0753	CCOc1cc(-c2nc(-c3ccncc3)no2)ccc1OCCF [TZ-14-50]
0.103 ± 0.0209	COc1ccc(-c2nc(-c3ccc(CN4CC(C(=O)O)C4)cc3)no2)cc1C(F)(F)F [TZ-43-26]
0.114 ± 0.0726	O=C(O)C1CCN(c2ccc3oc(-c4ccc(-c5ccc(OCCF)cc5)c(C(F)(F)F)c4)nc3c2)CC1 [TZ-31-56]
0.0238	OCC(O)c1ccc(-c2noc(-c3ccc(OCCF)c(C(F)(F)F)c3)n2)cc1 (centres unmarked) [Compound 8k]
0.334 ± 0.0588	O=C(O)c1ccc(-c2ccc3oc(-c4ccc(-c5ccc(F)cc5)c(C(F)(F)F)c4)nc3c2)s1 [TZ-31-85]
0.0537 ± 0.0158	COc1ccc(-c2nc(-c3ccc(CO)cc3)no2)cc1C(F)(F)F [TZ-43-18]
0.486 ± 0.069	O=C(O)C1CCN(c2ccc3oc(-c4ccc(-c5ccc(F)cc5)c(C(F)(F)F)c4)nc3c2)CC1 [TZ-31-39]
0.894 ± 0.367	O=C(O)C1CCN(c2ccc3oc(-c4ccc(-c5ccccc5OCCF)c(C(F)(F)F)c4)nc3c2)CC1 [TZ-31-53]
0.0764 ± 0.0216	O=C(O)C1CN(Cc2ccc3oc(-c4ccc(-c5ccc(OCCF)nc5)c(C(F)(F)F)c4)nc3c2)C1 [TZ-35-139]
0.0184 ± 0.0032	OCc1ccc(-c2noc(-c3ccc(OCCCF)c(C(F)(F)F)c3)n2)cc1 [TZ-48-24]
> 1	O=C(O)c1ccc(-c2noc(-c3ccc(OCCF)c(C(F)(F)F)c3)n2)cc1 [Compound 20a, 4-(5-(4-(2-Fluoroethoxy)-3-(trifluoromethyl)phenyl)-1,2,4-oxadiazol-3-yl)benzoic acid]
0.272 ± 0.065	O=C(NO)c1ccc(-c2noc(-c3ccc(OCCF)c(C(F)(F)F)c3)n2)cc1 [Compound 20b, 4-(5-(4-(2-Fluoroethoxy)-3-(trifluoromethyl)phenyl)-1,2,4-oxadiazol-3-yl)-N-hydroxybenzamide]
0.102 ± 0.04	O=C(O)C1CCN(c2ccc(-c3noc(-c4ccc(OCCF)c(C(F)(F)F)c4)n3)cc2)CC1 [TZ-43-107]
0.0596	OCCNCc1ccc(-c2noc(-c3ccc(OCCF)c(C(F)(F)F)c3)n2)cc1 [Compound 8e]
0.106	OCCOCCOCCOCc1ccc(-c2noc(-c3ccc(OCCF)c(C(F)(F)F)c3)n2)cc1 [Compound 12c]
0.509 ± 0.167	FCCOc1ccc(-c2nc(-c3ccc(CNCc4nnn[nH]4)cc3)no2)cc1C(F)(F)F [TZ-35-126]
0.0753 ± 0.0209	CN(CCC(=O)O)Cc1ccc(-c2noc(-c3ccc(-c4ccccc4OCCF)c(C(F)(F)F)c3)n2)cc1F [TZ-33-37]

Structure (SMILES)	IC50 [µM]
NCc1ccc(-c2noc(-c3ccc(OCCF)c(C(F)(F)F)c3)n2)cc1 [Compound 31a, (4-(5-(4-(2-Fluoroethoxy)-3-(trifluoromethyl)phenyl)-1,2,4-oxadiazol-3-Ophenyl)methanamine hydrochloride]	0.0342 ± 0.0071

Same assay, conditions: read-out: S1P1 IC50 ± SD

IC50 [µM]	Structure (SMILES)
0.341	O=C(O)c1cn(Cc2ccc(-c3noc(-c4ccc(OCCF)c(C(F)(F)F)c4)n3)cc2)nn1 [Compound 22a, 1-(4-(5-(4-(2-Fluoroethoxy)-3-(trifluoromethyl)phenyl)-1,2,4-oxadiazol-3-yl)benzyl)-1H-1,2,3-triazole-4-carbox-ylic acid]
> 0.1	OCC1CN(Cc2ccc(-c3noc(-c4ccc(OCCF)c(C(F)(F)F)c4)n3)cc2)C1 [Compound 10b]

Same assay, conditions: vs 8c

Fold decrease of S1P1 binding potency compared to 8c [fold]	Structure (SMILES)
4	OCC(O)c1ccc(-c2noc(-c3ccc(OCCF)c(C(F)(F)F)c3)n2)cc1 (centres unmarked) [Compound 8k]

Same assay, conditions: vs 19b

Fold increased S1P1 IC50 compared to 19b [fold]	Structure (SMILES)
4	O=C(NO)c1ccc(-c2noc(-c3ccc(OCCF)c(C(F)(F)F)c3)n2)cc1 [Compound 20b, 4-(5-(4-(2-Fluoroethoxy)-3-(trifluoromethyl)phenyl)-1,2,4-oxadiazol-3-yl)-N-hydroxybenzamide]

Same assay, conditions: vs compound 4 (2.6 nM)

Fold increased S1P1 IC50 compared to compound 4 [fold]	Structure (SMILES)
130	O=C(O)c1cn(Cc2ccc(-c3noc(-c4ccc(OCCF)c(C(F)(F)F)c4)n3)cc2)nn1 [Compound 22a, 1-(4-(5-(4-(2-Fluoroethoxy)-3-(trifluoromethyl)phenyl)-1,2,4-oxadiazol-3-yl)benzyl)-1H-1,2,3-triazole-4-carbox-ylic acid]
